In ChEMBL document CHEMBL2074114, “Inhibitory effect of novel oral hypoglycemic agent nateglinide (AY4166) on peptide transporters PEPT1 and PEPT2” (Eur J Pharmacol, 2000) one finds Activity and IC50 data, which are given here for three compounds.

One may read the IC50 as the concentration that inhibits the measured activity by half.

What all share (assay type): functional, cell-based
For experiment [1], the target named is T1, Solute carrier family 15 member 2 (Rattus norvegicus) (UniProt Q63424).
T1 sequence (whole entry): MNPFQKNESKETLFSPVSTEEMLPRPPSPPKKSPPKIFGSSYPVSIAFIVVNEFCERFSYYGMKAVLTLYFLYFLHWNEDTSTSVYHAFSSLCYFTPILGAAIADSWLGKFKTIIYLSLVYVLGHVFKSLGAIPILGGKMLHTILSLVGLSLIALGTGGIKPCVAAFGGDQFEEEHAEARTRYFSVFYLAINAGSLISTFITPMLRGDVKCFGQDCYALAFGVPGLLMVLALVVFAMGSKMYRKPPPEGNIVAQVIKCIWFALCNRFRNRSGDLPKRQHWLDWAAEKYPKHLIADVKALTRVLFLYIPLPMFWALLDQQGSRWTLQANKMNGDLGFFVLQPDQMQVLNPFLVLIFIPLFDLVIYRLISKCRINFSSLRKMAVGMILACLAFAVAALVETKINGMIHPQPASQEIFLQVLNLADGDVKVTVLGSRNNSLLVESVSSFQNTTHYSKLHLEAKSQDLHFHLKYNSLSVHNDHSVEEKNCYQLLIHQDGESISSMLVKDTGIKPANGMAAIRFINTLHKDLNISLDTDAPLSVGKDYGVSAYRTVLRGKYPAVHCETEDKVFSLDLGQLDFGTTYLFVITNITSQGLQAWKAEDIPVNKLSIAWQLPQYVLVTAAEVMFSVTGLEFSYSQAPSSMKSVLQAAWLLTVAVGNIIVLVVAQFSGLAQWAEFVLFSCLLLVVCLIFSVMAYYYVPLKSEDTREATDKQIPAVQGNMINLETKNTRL
Nature of the experiment: TP_TRANSPORTER: inhibition of Gly-Sar uptake (Gly-Sar: 20 uM, Chlorpropamide: 1000uM) in PEPT2-expressing LLC-PK1 cells.

Experiment [2] concerns the target T2, Solute carrier family 15 member 1 (Rattus norvegicus) (UniProt P51574).
T2 sequence (whole entry): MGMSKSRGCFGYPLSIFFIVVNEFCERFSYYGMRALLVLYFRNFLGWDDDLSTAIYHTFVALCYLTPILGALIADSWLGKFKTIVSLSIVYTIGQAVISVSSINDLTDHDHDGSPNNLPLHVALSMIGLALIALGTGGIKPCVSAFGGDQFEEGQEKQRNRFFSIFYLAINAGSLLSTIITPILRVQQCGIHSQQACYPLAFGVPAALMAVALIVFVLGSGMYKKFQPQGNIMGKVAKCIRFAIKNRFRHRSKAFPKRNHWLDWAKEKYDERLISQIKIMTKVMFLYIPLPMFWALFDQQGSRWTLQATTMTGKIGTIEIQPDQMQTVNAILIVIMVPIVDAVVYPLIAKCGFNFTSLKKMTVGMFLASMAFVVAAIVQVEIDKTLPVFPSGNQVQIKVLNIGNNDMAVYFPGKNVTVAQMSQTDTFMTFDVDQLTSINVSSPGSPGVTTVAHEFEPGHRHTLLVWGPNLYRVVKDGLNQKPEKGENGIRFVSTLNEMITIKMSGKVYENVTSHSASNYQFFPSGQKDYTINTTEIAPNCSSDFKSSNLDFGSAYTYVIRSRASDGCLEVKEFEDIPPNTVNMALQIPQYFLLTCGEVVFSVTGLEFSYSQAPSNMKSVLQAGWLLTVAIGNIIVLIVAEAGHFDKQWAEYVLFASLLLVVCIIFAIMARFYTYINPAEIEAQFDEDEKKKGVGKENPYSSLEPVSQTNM
Nature of the experiment: TP_TRANSPORTER: inhibition of Gly-Sar uptake (Gly-Sar: 20 uM, Chlorpropamide: 1000uM) in PEPT1-expressing LLC-PK1 cells.

Experiment [3] concerns the target T2, Solute carrier family 15 member 1 (Rattus norvegicus). Nature of the experiment: TP_TRANSPORTER: uptake in PEPT1-expressing LLC-PK1 cells.
Experiment [4] has as its target T1, Solute carrier family 15 member 2 (Rattus norvegicus). Nature of the experiment: TP_TRANSPORTER: uptake in PEPT2-expressing LLC-PK1 cells.
Experiment [5] has as its target T3, Solute carrier family 15 member 2 (Rattus norvegicus, UniProt Q63424).
T3 sequence (Q63424 whole entry): T1 sequence (whole entry)
Nature of the experiment: TP_TRANSPORTER: inhibition of Gly-Sar uptake (Gly-Sar: 20 uM) in PEPT2-expressing LLC-PK1 cells.

Experiment [6] addresses T4, Solute carrier family 15 member 1 (Rattus norvegicus, UniProt P51574).
T4 sequence (P51574 whole entry): T2 sequence (whole entry)
Nature of the experiment: TP_TRANSPORTER: inhibition of Gly-Sar uptake (Gly-Sar: 20 uM) in PEPT1-expressing LLC-PK1 cells.

In experiment [7] the target is T1, Solute carrier family 15 member 2 (Rattus norvegicus). As to the kind of experiment: TP_TRANSPORTER: inhibition of Gly-Sar uptake (Gly-Sar: 20 uM, Tolbutamide: 1000uM) in PEPT2-expressing LLC-PK1 cells.
Experiment [8] deals with T2, Solute carrier family 15 member 1 (Rattus norvegicus). As to the kind of experiment: TP_TRANSPORTER: inhibition of Gly-Sar uptake (Gly-Sar: 20 uM, Tolbutamide: 1000uM) in PEPT1-expressing LLC-PK1 cells.

Take `CCCNC(=O)NS(=O)(=O)c1ccc(Cl)cc1`: the Activity entry in experiment [1] and in experiment [2] was “inhibitor [+]” throughout.
Regarding `CC(C)[C@H]1CC[C@H](C(=O)N[C@H](Cc2ccccc2)C(=O)O)CC1` [NATEGLINIDE], the Activity result in experiment [3] and in experiment [4] was “is not a substrate [-]” throughout. For the same compound, the IC50 in experiment [5] stood at 70 µM; in experiment [6], 160 µM.
For the compound `CCCCNC(=O)NS(=O)(=O)c1ccc(C)cc1`, the Activity result in experiment [7] and in experiment [8] was “inhibitor [+]” in each case.
